Reference: the NIST ThermoML archive (doi:10.1016/j.fluid.2015.03.021)

Assay: excess molar enthalpy (molar enthalpy of mixing); xn = mol fraction of the nth substance listed
Conditions: 101 kPa, Liquid, Calvet calorimetry

CN1CCNCC1 [N-methylpiperazine] + O
Conditions	excess molar enthalpy [kJ/mol]
303.15 K, x1 = 0.0495	-1.99
303.15 K, x1 = 0.0997	-3.49
303.15 K, x1 = 0.2004	-4.95
303.15 K, x1 = 0.3006	-5.37
303.15 K, x1 = 0.3993	-4.95
303.15 K, x1 = 0.6	-3.52
303.15 K, x1 = 0.7973	-1.82
323.15 K, x1 = 0.3991	-4.7
323.15 K, x1 = 0.4012	-4.63
323.15 K, x1 = 0.4193	-4.57
323.15 K, x1 = 0.4994	-4.11
323.15 K, x1 = 0.5981	-3.44
323.15 K, x1 = 0.7019	-2.58
323.15 K, x1 = 0.8001	-1.76
323.15 K, x1 = 0.8964	-0.944

OCCNCCO [diethanolamine] + O
298.15 K
Conditions	excess molar enthalpy [kJ/mol]
x1 = 0.1002	-1.12
x1 = 0.2057	-1.74
x1 = 0.2992	-2.03
x1 = 0.3535	-2.05
x1 = 0.403	-2.04
x1 = 0.5035	-1.88
x1 = 0.6967	-1.27
x1 = 0.8826	-0.5
